Key:
solubility / dissolution = type: physicochemical
[1] = 13-week dietary toxicity study; type: in vivo, CD [Crl:CD(SD)] rats
[2] = single-dose pharmacokinetics and oral bioavailability; type: in vivo, Sprague-Dawley rats; settings: for AUClast / Cmax: S2218 in plasma
[3] = toxicokinetics in 13-week dietary study; type: in vivo, Sprague-Dawley rats; settings: for bioavailability of S8069 in 13-week study: male and female, range
[4] = 140 mg/kg bw/day females, p < 0.05
[5] = S8069 oral gavage, 7.83 mg/kg bw S2218 equiv., F
[6] = S8069 oral gavage, 7.83 mg/kg bw S2218 equiv., M
[7] = S8069 oral gavage, 78.3 mg/kg bw S2218 equiv., F
[8] = S8069 oral gavage, 78.3 mg/kg bw S2218 equiv., M
[9] = Day 7, 140 mg/kg bw diet, M + F
[10] = Day 91, 30 mg/kg bw diet, M + F
[11] = Day 91, 70 mg/kg bw diet, M + F
[12] = Day 91, 140 mg/kg bw diet, M + F

Cc1cc(C(=O)NC(C)(C)COc2cccc3c2C(N)=NS(=O)(=O)N3)cc(C)n1.O=S(=O)(O)O [S8069]
solubility in water (solubility / dissolution): very soluble in water
state in 1% methylcellulose dosing formulation (solubility / dissolution; S8069 at 10 mg/mL, S2218 at all dose levels): completely dissolved
pituitary/brain weight decrease vs control ([1]; 140 mg/kg bw/day females, p < 0.01): 17.7%
kidney/brain weight decrease vs control [1, 4]: 8.1%
liver/brain weight decrease vs control [1, 4]: 9.8%
pituitary gland mean absolute weight decrease vs control [1, 4]: 15.1%
pituitary/body weight decrease vs control [1, 4]: 14.6%
brain weight increase relative to control ([1]; 140 mg/kg bw/day females, p > 0.05): 3.4%
Findings ([1]; 30, 70, 140 mg/kg bw/day food ad-mix): No test-article related findings
margin of safety (NOAEL 140 mg/kg bw/day vs PADI 47 μg/kg bw/day) ([1]; rat, in vivo): > 2975 fold
%F [2, 5]: 0.77%
Tmax [2, 5]: 0.250 ± 0.0 h
t1/2 [2, 5]: 1.15 ± 0.353 h
AUClast [2, 5]: 26.4 ± 14.3 ng·h/mL
Cmax [2, 5]: 24.4 ± 10.1 ng/mL
%F [2, 6]: 0.60%
Tmax [2, 6]: 0.313 ± 0.125 h
t1/2 [2, 6]: 0.786 ± 0.110 h
AUClast [2, 6]: 23.6 ± 5.26 ng·h/mL
Cmax [2, 6]: 21.4 ± 1.54 ng/mL
%F [2, 7]: 0.29%
Tmax [2, 7]: 0.250 ± 0.0 h
t1/2 [2, 7]: 0.969 ± 0.315 h
AUClast [2, 7]: 99.1 ± 23.2 ng·h/mL
Cmax [2, 7]: 106 ± 39.7 ng/mL
%F [2, 8]: 0.14%
Tmax [2, 8]: 0.250 ± 0.0 h
t1/2 [2, 8]: 0.860 ± 0.340 h
AUClast [2, 8]: 55.6 ± 17.8 ng·h/mL
Cmax [2, 8]: 60.5 ± 16.9 ng/mL
%F ([2]; oral, both test articles, male and female rats, all doses): 0.14–0.77%
ACUM Ratio (dose-normalized AUC0-24h Day 91/Day 7) ([3]; 30 mg/kg bw, F): 1.35
ACUM Ratio (dose-normalized AUC0-24h Day 91/Day 7) ([3]; 30 mg/kg bw, M): 2.86
ACUM Ratio (dose-normalized AUC0-24h Day 91/Day 7) ([3]; 30 mg/kg bw, M + F): 1.88
ACUM Ratio (dose-normalized AUC0-24h Day 91/Day 7) ([3]; 70 mg/kg bw, F): 0.821
ACUM Ratio (dose-normalized AUC0-24h Day 91/Day 7) ([3]; 70 mg/kg bw, M): 1.07
ACUM Ratio (dose-normalized AUC0-24h Day 91/Day 7) ([3]; 70 mg/kg bw, M + F): 0.954
ACUM Ratio (dose-normalized AUC0-24h Day 91/Day 7) ([3]; 140 mg/kg bw, F): 0.768
ACUM Ratio (dose-normalized AUC0-24h Day 91/Day 7) ([3]; 140 mg/kg bw, M): 4.55
ACUM Ratio (dose-normalized AUC0-24h Day 91/Day 7) ([3]; 140 mg/kg bw, M + F): 2.30
F:M Ratio (AUC0-24h/Dose) ([3]; Day 7, 30 mg/kg bw): 1.75
AUC0-24h ([3]; Day 7, 30 mg/kg bw diet, F): 253 ng·h/mL
AUC0-24h/Dose ([3]; Day 7, 30 mg/kg bw diet, F): 9.10 ng·h/mL/mg/kg
Cmax ([3]; Day 7, 30 mg/kg bw diet, F): 20.1 ng/mL
Cmax/Dose ([3]; Day 7, 30 mg/kg bw diet, F): 0.723 ng/mL/mg/kg
Tmax ([3]; Day 7, 30 mg/kg bw diet, F): 3 h
AUC0-24h ([3]; Day 7, 30 mg/kg bw diet, M): 134 ng·h/mL
AUC0-24h/Dose ([3]; Day 7, 30 mg/kg bw diet, M): 5.19 ng·h/mL/mg/kg
Cmax ([3]; Day 7, 30 mg/kg bw diet, M): 14.0 ng/mL
Cmax/Dose ([3]; Day 7, 30 mg/kg bw diet, M): 0.543 ng/mL/mg/kg
Tmax ([3]; Day 7, 30 mg/kg bw diet, M): 1 h
AUC0-24h ([3]; Day 7, 30 mg/kg bw diet, M + F): 194 ng·h/mL
AUC0-24h/Dose ([3]; Day 7, 30 mg/kg bw diet, M + F): 7.24 ng·h/mL/mg/kg
Cmax ([3]; Day 7, 30 mg/kg bw diet, M + F): 11.1 ng/mL
Cmax/Dose ([3]; Day 7, 30 mg/kg bw diet, M + F): 0.414 ng/mL/mg/kg
Tmax ([3]; Day 7, 30 mg/kg bw diet, M + F): 3 h
F:M Ratio (AUC0-24h/Dose) ([3]; Day 7, 70 mg/kg bw): 0.914
AUC0-24h ([3]; Day 7, 70 mg/kg bw diet, F): 610 ng·h/mL
AUC0-24h/Dose ([3]; Day 7, 70 mg/kg bw diet, F): 9.33 ng·h/mL/mg/kg
Cmax ([3]; Day 7, 70 mg/kg bw diet, F): 44.4 ng/mL
Cmax/Dose ([3]; Day 7, 70 mg/kg bw diet, F): 0.679 ng/mL/mg/kg
Tmax ([3]; Day 7, 70 mg/kg bw diet, F): 0 h
AUC0-24h ([3]; Day 7, 70 mg/kg bw diet, M): 641 ng·h/mL
AUC0-24h/Dose ([3]; Day 7, 70 mg/kg bw diet, M): 10.2 ng·h/mL/mg/kg
Cmax ([3]; Day 7, 70 mg/kg bw diet, M): 32.8 ng/mL
Cmax/Dose ([3]; Day 7, 70 mg/kg bw diet, M): 0.522 ng/mL/mg/kg
Tmax ([3]; Day 7, 70 mg/kg bw diet, M): 6 h
AUC0-24h ([3]; Day 7, 70 mg/kg bw diet, M + F): 626 ng·h/mL
AUC0-24h/Dose ([3]; Day 7, 70 mg/kg bw diet, M + F): 9.77 ng·h/mL/mg/kg
Cmax ([3]; Day 7, 70 mg/kg bw diet, M + F): 34.3 ng/mL
Cmax/Dose ([3]; Day 7, 70 mg/kg bw diet, M + F): 0.535 ng/mL/mg/kg
Tmax ([3]; Day 7, 70 mg/kg bw diet, M + F): 12 h
F:M Ratio (AUC0-24h/Dose) ([3]; Day 7, 140 mg/kg bw): 1.48
AUC0-24h ([3]; Day 7, 140 mg/kg bw diet, F): 1640 ng·h/mL
AUC0-24h/Dose ([3]; Day 7, 140 mg/kg bw diet, F): 12.0 ng·h/mL/mg/kg
Cmax ([3]; Day 7, 140 mg/kg bw diet, F): 137 ng/mL
Cmax/Dose ([3]; Day 7, 140 mg/kg bw diet, F): 1.00 ng/mL/mg/kg
Tmax ([3]; Day 7, 140 mg/kg bw diet, F): 24 h
AUC0-24h ([3]; Day 7, 140 mg/kg bw diet, M): 1020 ng·h/mL
AUC0-24h/Dose ([3]; Day 7, 140 mg/kg bw diet, M): 8.16 ng·h/mL/mg/kg
Cmax ([3]; Day 7, 140 mg/kg bw diet, M): 57.0 ng/mL
Cmax/Dose ([3]; Day 7, 140 mg/kg bw diet, M): 0.456 ng/mL/mg/kg
Tmax ([3]; Day 7, 140 mg/kg bw diet, M): 6 h
AUC0-24h [3, 9]: 1330 ng·h/mL
AUC0-24h/Dose [3, 9]: 10.15 ng·h/mL/mg/kg
Cmax [3, 9]: 86.5 ng/mL
Cmax/Dose [3, 9]: 0.660 ng/mL/mg/kg
Tmax [3, 9]: 6 h
bioavailability of S8069 in 13-week study ([3]; Day 7, food ad-mix): 1.28–3.36%
F:M Ratio (AUC0-24h/Dose) ([3]; Day 91, 30 mg/kg bw): 0.828
AUC0-24h ([3]; Day 91, 30 mg/kg bw diet, F): 376 ng·h/mL
AUC0-24h/Dose ([3]; Day 91, 30 mg/kg bw diet, F): 12.3 ng·h/mL/mg/kg
Cmax ([3]; Day 91, 30 mg/kg bw diet, F): 58.8 ng/mL
Cmax/Dose ([3]; Day 91, 30 mg/kg bw diet, F): 1.93 ng/mL/mg/kg
Tmax ([3]; Day 91, 30 mg/kg bw diet, F): 6 h
AUC0-24h ([3]; Day 91, 30 mg/kg bw diet, M): 427 ng·h/mL
AUC0-24h/Dose ([3]; Day 91, 30 mg/kg bw diet, M): 14.9 ng·h/mL/mg/kg
Cmax ([3]; Day 91, 30 mg/kg bw diet, M): 35.8 ng/mL
Cmax/Dose ([3]; Day 91, 30 mg/kg bw diet, M): 1.25 ng/mL/mg/kg
Tmax ([3]; Day 91, 30 mg/kg bw diet, M): 6 h
AUC0-24h [3, 10]: 402 ng·h/mL
AUC0-24h/Dose [3, 10]: 13.6 ng·h/mL/mg/kg
Cmax [3, 10]: 47.3 ng/mL
Cmax/Dose [3, 10]: 1.60 ng/mL/mg/kg
Tmax [3, 10]: 6 h
F:M Ratio (AUC0-24h/Dose) ([3]; Day 91, 70 mg/kg bw): 0.703
AUC0-24h ([3]; Day 91, 70 mg/kg bw diet, F): 507 ng·h/mL
AUC0-24h/Dose ([3]; Day 91, 70 mg/kg bw diet, F): 7.67 ng·h/mL/mg/kg
Cmax ([3]; Day 91, 70 mg/kg bw diet, F): 27.8 ng/mL
Cmax/Dose ([3]; Day 91, 70 mg/kg bw diet, F): 0.421 ng/mL/mg/kg
Tmax ([3]; Day 91, 70 mg/kg bw diet, F): 0 h
AUC0-24h ([3]; Day 91, 70 mg/kg bw diet, M): 748 ng·h/mL
AUC0-24h/Dose ([3]; Day 91, 70 mg/kg bw diet, M): 10.9 ng·h/mL/mg/kg
Cmax ([3]; Day 91, 70 mg/kg bw diet, M): 60.4 ng/mL
Cmax/Dose ([3]; Day 91, 70 mg/kg bw diet, M): 0.880 ng/mL/mg/kg
Tmax ([3]; Day 91, 70 mg/kg bw diet, M): 3 h
AUC0-24h [3, 11]: 627 ng·h/mL
AUC0-24h/Dose [3, 11]: 9.32 ng·h/mL/mg/kg
Cmax [3, 11]: 40.0 ng/mL
Cmax/Dose [3, 11]: 0.594 ng/mL/mg/kg
Tmax [3, 11]: 3 h
F:M Ratio (AUC0-24h/Dose) ([3]; Day 91, 140 mg/kg bw): 0.248
AUC0-24h ([3]; Day 91, 140 mg/kg bw diet, F): 1120 ng·h/mL
AUC0-24h/Dose ([3]; Day 91, 140 mg/kg bw diet, F): 9.18 ng·h/mL/mg/kg
Cmax ([3]; Day 91, 140 mg/kg bw diet, F): 85.0 ng/mL
Cmax/Dose ([3]; Day 91, 140 mg/kg bw diet, F): 0.697 ng/mL/mg/kg
Tmax ([3]; Day 91, 140 mg/kg bw diet, F): 12 h
AUC0-24h ([3]; Day 91, 140 mg/kg bw diet, M): 4550 ng·h/mL
AUC0-24h/Dose ([3]; Day 91, 140 mg/kg bw diet, M): 37.0 ng·h/mL/mg/kg
Cmax ([3]; Day 91, 140 mg/kg bw diet, M): 358 ng/mL
Cmax/Dose ([3]; Day 91, 140 mg/kg bw diet, M): 2.91 ng/mL/mg/kg
Tmax ([3]; Day 91, 140 mg/kg bw diet, M): 12 h
AUC0-24h [3, 12]: 2840 ng·h/mL
AUC0-24h/Dose [3, 12]: 23.3 ng·h/mL/mg/kg
Cmax [3, 12]: 222 ng/mL
Cmax/Dose [3, 12]: 1.82 ng/mL/mg/kg
Tmax [3, 12]: 12 h
bioavailability of S8069 in 13-week study ([3]; Day 91, food ad-mix): 2.15–9.14%

Source: PMC5615155 (Toxicology Reports, 2017)
